Biological target: T1, human nSMase2 (Homo sapiens, UniProt Q9NY59)
T1 sequence (Q9NY59 1-655): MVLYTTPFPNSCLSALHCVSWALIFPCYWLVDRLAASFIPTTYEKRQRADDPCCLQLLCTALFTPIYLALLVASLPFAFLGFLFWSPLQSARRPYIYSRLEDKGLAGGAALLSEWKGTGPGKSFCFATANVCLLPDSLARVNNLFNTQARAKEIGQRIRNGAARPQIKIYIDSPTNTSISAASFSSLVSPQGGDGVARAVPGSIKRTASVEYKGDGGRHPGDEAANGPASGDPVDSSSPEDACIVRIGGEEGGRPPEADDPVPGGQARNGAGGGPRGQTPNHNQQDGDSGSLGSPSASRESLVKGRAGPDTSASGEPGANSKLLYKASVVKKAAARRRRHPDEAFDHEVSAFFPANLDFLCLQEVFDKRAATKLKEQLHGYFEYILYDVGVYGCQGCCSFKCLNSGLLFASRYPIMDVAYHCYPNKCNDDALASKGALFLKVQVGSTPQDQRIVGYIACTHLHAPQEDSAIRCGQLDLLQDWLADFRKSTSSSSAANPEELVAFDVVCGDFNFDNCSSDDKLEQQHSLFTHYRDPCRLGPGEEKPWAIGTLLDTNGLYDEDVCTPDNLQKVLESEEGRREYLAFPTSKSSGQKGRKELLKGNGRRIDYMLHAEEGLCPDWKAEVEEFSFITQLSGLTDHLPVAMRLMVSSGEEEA
Test: Fluorescence (Amplex red coupled) nSMase2 activity assay
Format: biochemical
Parameters: Full length human nSMase2 cDNA with a C-terminal Flag tag; crude cell lysate used as enzyme
Procedure: The production of the latter was coupled to a dephosphorylation reaction catalyzed by alkaline phosphatase (4 U/ml) to produce choline, followed by oxidation of choline by choline oxidase (0.1 U/ml) to produce betaine and H2O2, which in the presence of horseradish peroxidase (HRP, 1U/ml) and 50 μM Amplex red, generates the fluorescent molecule resorufin (Life Technologies). Substrate stock solution was prepared in 2% Triton X-100, vortexed and sonicated for 30 min. Reactions were carried out for 1 h at 37°C in 100 mM Tris-HCl pH 7.4, 10 mM MgCl2, 0.2% Triton X-100 and the generation of the fluorescent product was monitored by measuring relative florescence units (RFU) with excitation at 530 nm and emission at 590 nm (Fig 1). This assay was optimized for 384-well format (50 μl total volume per well) based on linearity of the enzymatic activity with respect to time, as well as substrate and enzyme concentrations. […] This fluorescence assay was used for compound screening and IC50 value determinations, based on duplicate eight-point dose response curves.

Question: Which 1/V (1/[SM] 0.002 µM^-1, 2 µM Cambinol) does the source give for `O=c1[nH]c(=S)[nH]c(-c2ccccc2)c1Cc1c(O)ccc2ccccc12` [Cambinol, cambinol] here?
Answer: Its 1/V is 0.00052 h/RFU.

Question: What about the 1/V (1/[SM] 0.002 µM^-1, 3 µM Cambinol) of the same molecule?
Answer: The 1/V was 0.00066 h/RFU.

Question: What about the 1/V (1/[SM] 0.002 µM^-1, 5 µM Cambinol) of the same molecule?
Answer: Its 1/V is 0.00102 h/RFU.

Question: And the 1/V (1/[SM] 0.003 µM^-1, 2 µM Cambinol)?
Answer: The 1/V was 0.00062 h/RFU.

Question: And the 1/V (1/[SM] 0.003 µM^-1, 3 µM Cambinol)?
Answer: Its 1/V is 0.00078 h/RFU.

Question: And the 1/V (1/[SM] 0.003 µM^-1, 5 µM Cambinol)?
Answer: The 1/V was 0.00109 h/RFU.

Question: What about the 1/V (1/[SM] 0.006 µM^-1, 2 µM Cambinol) of the same molecule?
Answer: The 1/V was 0.00075 h/RFU.

Question: And the 1/V (1/[SM] 0.006 µM^-1, 3 µM Cambinol)?
Answer: Its 1/V is 0.00095 h/RFU.

Question: What about the 1/V (1/[SM] 0.006 µM^-1, 5 µM Cambinol) of the same molecule?
Answer: Its 1/V is 0.00128 h/RFU.

Question: What about the 1/V (1/[SM] 0.013 µM^-1, 2 µM Cambinol) of the same molecule?
Answer: Its 1/V is 0.00096 h/RFU.

Question: And the 1/V (1/[SM] 0.013 µM^-1, 3 µM Cambinol)?
Answer: Its 1/V is 0.00118 h/RFU.

Question: And the 1/V (1/[SM] 0.013 µM^-1, 5 µM Cambinol)?
Answer: Its 1/V is 0.00146 h/RFU.

Question: What about the V ([SM] 19.5 µM, 2 µM Cambinol) of the same molecule?
Answer: The V was 641 RFU/h.

Question: And the V ([SM] 19.5 µM, 3 µM Cambinol)?
Answer: Its V is 571 RFU/h.

Question: And the V ([SM] 19.5 µM, 5 µM Cambinol)?
Answer: Its V is 500 RFU/h.

Question: What about the V ([SM] 39.0 µM, 2 µM Cambinol) of the same molecule?
Answer: The V was 752 RFU/h.

Question: What about the V ([SM] 39.0 µM, 3 µM Cambinol) of the same molecule?
Answer: Its V is 663 RFU/h.

Question: What about the V ([SM] 39.0 µM, 5 µM Cambinol) of the same molecule?
Answer: The V was 567 RFU/h.

Question: What about the V ([SM] 78.0 µM, 2 µM Cambinol) of the same molecule?
Answer: The V was 1042 RFU/h.

Question: And the V ([SM] 78.0 µM, 3 µM Cambinol)?
Answer: The V was 849 RFU/h.

Question: And the V ([SM] 78.0 µM, 5 µM Cambinol)?
Answer: The V was 684 RFU/h.

Question: And the V ([SM] 156.0 µM, 2 µM Cambinol)?
Answer: The V was 1336 RFU/h.

Question: What about the V ([SM] 156.0 µM, 3 µM Cambinol) of the same molecule?
Answer: Its V is 1055 RFU/h.

Question: And the V ([SM] 156.0 µM, 5 µM Cambinol)?
Answer: The V was 784 RFU/h.

Question: What about the V ([SM] 313.0 µM, 2 µM Cambinol) of the same molecule?
Answer: The V was 1621 RFU/h.

Question: What about the V ([SM] 313.0 µM, 3 µM Cambinol) of the same molecule?
Answer: Its V is 1288 RFU/h.

Question: What about the V ([SM] 313.0 µM, 5 µM Cambinol) of the same molecule?
Answer: The V was 922 RFU/h.

Question: What about the “mode of inhibition (MOI)” value (human nSMase2) of the same molecule?
Answer: The value was “uncompetitive”.

Reference: PMC4444023 (PLoS ONE, 2015)
